Like-named read-outs stand apart in the source and are kept apart here.
Columns and labels:
[1] = Plasma and blood pharmacokinetics of 5-ALA and PPIX after IV SONALA-001 (LC-MS/MS); assay type: in vivo; details: human, plasma; 10 mg/kg IV Sonala-001; recurrent GBM patients; read-out: median Cmax for 5-ALA in plasma
Protocol: Six hours prior to MRgFUS, adult patients with recurrent GBM are administered SONALA-001 (10 mg/kg), an investigational IV formulation of […]. Oral […] is an FDA- and […] agent used in fluorescence-guided surgery to visualize glioma infiltration and maximize extent of resection. LCMS/MS methods were developed to determine the levels of […] and PPIX in plasma and blood following IV administration of SONALA-001. Samples were analyzed using SCIEX ExionLC UHPLC system and the detection was performed on SCIEX QTRAP 6500+ mass spectrometer by multiple reaction monitoring mode to monitor the precursor-to-product ion transitions in positive electrospray ionization mode.

[2] = Drug and device safety of 5-ALA SDT in recurrent GBM patients (Phase 0/1); assay type: in vivo, human; details: three adult recurrent GBM patients
Protocol: Six hours prior to MRgFUS, adult patients with recurrent GBM are administered SONALA-001 (10 mg/kg), an investigational IV formulation of […]. Oral […] is an FDA- and […] agent used in fluorescence-guided surgery to visualize glioma infiltration and maximize extent of resection. The […] Model 4000 Type-2 system is an investigational MRgFUS with a 1000-element transducer utilizing real-time MR imaging during treatment delivery. It includes the same monitoring capabilities as the ablative, FDA-approved Type-1 system for essential tremor and tremor-dominant Parkinson's Disease. However, the Type-2 device can target a large range of brain anatomy and operates at relatively low ultrasound frequencies and intensities, preventing tissue heating when inducing sonoluminescence. Intra-procedural MR thermometry automatically triggers an auto-stop if any tissue approaches ablative temperatures. […] Patients must have completed standard-of-care chemotherapy and radiotherapy prior to radiographic recurrence. In a Dose-Escalation Arm, 9-18 patients are assigned to one of three ascending acoustic energy doses of […], measured at transducer surface), followed by a four-day interval until tumor resection. In each patient, half the tumor volume, including Gadolinium-enhancing and non-enhancing tumor, is targeted with MRgFUS and the other half serves as an internal control. […]

[3] = human, in vivo
Source text: Performed similarly to Example 1 with same study drug but for Diffuse Intrinsic Pontine Glioma (DIPG) and with typically only radiation therapy performed prior.
Performed similarly to Example 1 but with an increase in the number of subspots per sonication (32 subspots). Targets were overlapped with a 2.0-3.0 mm spot to spot separation and Duty Cycle within 4-32% throughout the study. Pulse duration ranged from 0.0002 to 0.002 second.
Similar to Example 1, this multi-center, non-randomized, open label, first-in-pediatric Phase 1/2 study is a drug dose (5, 10, or 15 mg/kg SONALA-001) and focused ultrasound energy (200J, 400J, or 800J) escalation study containing 18-24 subjects, 9 cohorts of approximately 3 patients each. These pediatric patients with DIPG must have completed standard-of-care radiotherapy prior to radiographic treatment. No resection due to location but biopsy can be obtained. In the first patient, half of the Pons volume is targeted with MRgFUS and the other half serves as an internal control for safety. If no DLTs or any grade intracranial hemorrhage and any clinical symptoms (CTCAE, Version 5.0, i.e., intracranial hemorrhage Grades 2-5) are observed, the next patients will receive treatment over the entire pons. The intervention model will be sequential assignment using a Bayesian optimal interval (BOIN) dose escalation method. […]

NCC(=O)CCC(=O)O [5-ALA, 5-aminolevulinic acid]
Cmax [1]: 307 µM | 5-ALA-related photosensitivity [2]: No patient demonstrated 5-ALA-related photosensitivity | 5-ALA-related photosensitivity [3]: No patient demonstrated 5-ALA-related photosensitivity

Reference: patent US20250041577A1, “SHORT-PULSE SONODYNAMIC TREATMENT APPARATUS” (Insightec, Ltd., priority 2021, published 2025)
